Reference: article PMC9602792, “Preclinical evaluation of the epithelial sodium channel inhibitor AZD5634 and implications on human translation” (American Journal of Physiology - Lung Cellular and …, 2022)

What was measured:
people with CF = test system: people with CF; set-up: method as in PMID 35227647; settings: single-dose inhalation, NCT02950805; cited from earlier work
ENaC = target: T1, ENaC (Homo sapiens, UniProt P37088+P51168+P51170); assay: Ussing chamber Isc in F508del-homozygous CF HBEC cultures; format: cell-based
T1 construct: host or cells: primary normal human bronchial epithelial cells, ALI culture
T1 sequence (P37088 1-669): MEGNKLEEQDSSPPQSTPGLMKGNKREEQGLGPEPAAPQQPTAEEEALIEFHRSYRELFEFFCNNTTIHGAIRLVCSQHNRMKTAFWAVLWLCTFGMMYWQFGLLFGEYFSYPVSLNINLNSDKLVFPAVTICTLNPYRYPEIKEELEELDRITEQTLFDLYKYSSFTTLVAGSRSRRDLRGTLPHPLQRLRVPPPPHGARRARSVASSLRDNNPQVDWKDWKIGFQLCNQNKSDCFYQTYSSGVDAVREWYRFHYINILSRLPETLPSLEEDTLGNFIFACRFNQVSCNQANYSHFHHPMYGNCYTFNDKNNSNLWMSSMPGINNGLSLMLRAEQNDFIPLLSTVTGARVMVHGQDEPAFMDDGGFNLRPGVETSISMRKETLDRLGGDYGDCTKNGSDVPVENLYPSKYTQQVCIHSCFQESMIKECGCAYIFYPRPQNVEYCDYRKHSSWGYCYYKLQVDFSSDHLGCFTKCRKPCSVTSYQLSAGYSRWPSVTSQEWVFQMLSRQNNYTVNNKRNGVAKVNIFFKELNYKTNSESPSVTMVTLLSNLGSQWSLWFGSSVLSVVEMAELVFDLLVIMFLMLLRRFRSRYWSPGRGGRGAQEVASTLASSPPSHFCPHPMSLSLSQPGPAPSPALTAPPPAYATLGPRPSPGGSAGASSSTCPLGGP
T1 sequence (P51168 1-640): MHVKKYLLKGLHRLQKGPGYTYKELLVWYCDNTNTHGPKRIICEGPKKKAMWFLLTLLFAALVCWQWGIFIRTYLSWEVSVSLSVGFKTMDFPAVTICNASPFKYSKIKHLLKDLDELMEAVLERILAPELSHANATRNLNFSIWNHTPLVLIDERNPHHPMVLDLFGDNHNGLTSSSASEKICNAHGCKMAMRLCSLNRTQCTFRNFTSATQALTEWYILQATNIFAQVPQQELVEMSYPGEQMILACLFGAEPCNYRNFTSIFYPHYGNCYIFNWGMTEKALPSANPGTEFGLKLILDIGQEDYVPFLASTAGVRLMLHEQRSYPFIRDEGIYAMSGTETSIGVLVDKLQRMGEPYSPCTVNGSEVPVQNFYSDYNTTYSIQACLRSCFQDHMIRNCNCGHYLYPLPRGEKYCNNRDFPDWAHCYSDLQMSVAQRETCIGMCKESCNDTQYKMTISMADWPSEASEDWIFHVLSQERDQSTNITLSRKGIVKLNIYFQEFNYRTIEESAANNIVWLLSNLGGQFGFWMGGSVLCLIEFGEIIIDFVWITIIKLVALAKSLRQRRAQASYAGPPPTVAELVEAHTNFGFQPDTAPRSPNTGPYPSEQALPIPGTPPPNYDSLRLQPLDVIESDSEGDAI
T1 sequence (P51170 1-649): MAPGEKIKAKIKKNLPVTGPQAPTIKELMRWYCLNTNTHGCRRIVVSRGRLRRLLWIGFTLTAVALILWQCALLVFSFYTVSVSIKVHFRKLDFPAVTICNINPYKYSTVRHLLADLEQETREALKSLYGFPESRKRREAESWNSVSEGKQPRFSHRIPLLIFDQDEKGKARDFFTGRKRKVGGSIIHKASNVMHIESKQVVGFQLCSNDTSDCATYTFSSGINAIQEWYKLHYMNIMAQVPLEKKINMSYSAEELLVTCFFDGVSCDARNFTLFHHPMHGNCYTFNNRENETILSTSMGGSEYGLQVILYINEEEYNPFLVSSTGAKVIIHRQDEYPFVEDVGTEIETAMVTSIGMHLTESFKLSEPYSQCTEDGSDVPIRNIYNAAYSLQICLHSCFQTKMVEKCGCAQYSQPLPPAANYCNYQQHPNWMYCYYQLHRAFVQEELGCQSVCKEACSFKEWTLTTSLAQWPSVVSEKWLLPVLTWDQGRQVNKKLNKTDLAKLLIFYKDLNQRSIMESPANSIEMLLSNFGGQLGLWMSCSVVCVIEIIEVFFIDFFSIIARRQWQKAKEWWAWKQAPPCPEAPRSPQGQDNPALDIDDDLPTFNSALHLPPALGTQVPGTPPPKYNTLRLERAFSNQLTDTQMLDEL
Procedure: Using previously described techniques ([2], [37]), epithelial cells were harvested from excised lung tissue derived from CF donors homozygous for F508del CFTR, expanded, and grown until confluency was attained. […] To stimulate fresh mucus secretion and formation of an even ASL layer, the cells were washed 48–72 h before experimentation with PneumaCult ALI media (80 µL), added apically, and then aspirated following 30–45 min incubation at 37°C. The washing process was repeated with a 15-min incubation period and the mucus layer was allowed to reestablish, after which the cells were treated with 1 µL of AZD5634 (1 µM, apical), alone and in combination with lumacaftor and ivacaftor (luma/iva; 3 µM/10 µM, basolateral). PBS (1% DMSO, apical) served as a vehicle control. […] Only passage 1 and 2 monolayers were used for these studies.
CFTR-dependent ion transport electrophysiology was measured in HBEC cultures by Isc using modified P2300 Ussing chambers (Physiologic Instruments, San Diego, CA) as previously described ([37], [38]). […] All chambers were maintained at 37°C and agonist stimulation was initiated within 15 min of placement in the chambers.
Descriptive statistics were calculated and means compared using unpaired or paired t tests, or ANOVA, with post hoc analyses conducted for multiple comparisons where appropriate. For analyses of functional anatomy of en bloc trachea, a mixed linear model was used that corrected for within-animal correlation. All tests were two-sided and were computed using GraphPad Prism (GraphPad Software, Inc., La Jolla, CA). P-values <0.05 were considered significant. Statistics are reported as means ± SE, unless indicated otherwise.

[1] = set-up: method as in unpublished information; settings: ref unpublished information, cited from earlier work

Question: Which results are given for AZD5634?
Answer: effect on MCC (people with CF): did not demonstrate augmented MCC; EC50 (ENaC; F508del-homozygous HBE ALI cultures, read-out: half maximal effective concentration (EC50), cumulative drug effect on Isc): 45.2 nM; incremental Isc change (ENaC; at 100 nM): −6.4 ± 1.6; cumulative ΔIsc (ENaC; at the maximum concentration (10,000 nM)): −25.3 ± 5.9; further reduction in Isc upon acute addition of benzamil (ENaC; benzamil 10 μM after maximal concentration of test drug): no further appreciable reductions in Isc; hyperkalemia ([1]; after inhalation and/or nebulization): does not cause hyperkalemia; renal clearance [1]: minimal
